Literature values, collected in patent publication US8067367B2, “Methods of increasing platelet and hematopoietic stem cell production” (Janssen Pharmaceutica, N.V., priority 2002, dated 2011).

Assays:
CD34+ cells = details: normal volunteers
CD34+ stem cells = details: rhTPO with G-CSF; pilot study
[1] = system: HSCs in adult bone marrow; details: exogenously added TPO; after bone marrow transplantation
[2] = single dose of TPO, cancer patients

For Thrombopoietin [TPO], the “increase in circulating CD34+ cells” value (circulating CD34+ cells; 3-7 days after a single dose of TPO, cancer patients with otherwise normal hematopoiesis) is listed as 6 fold, the “increase of committed megakaryocytic subfraction (CD34+CD41+CD14−)” value (circulating CD34+ cells; [2]) is listed as roughly 15 fold and the “increase of stem cell enriched subfraction (CD34+ Thy+Lin−)” value (circulating CD34+ cells; [2]) is listed as roughly 9 fold. For the same substance, the “CD34+ cells in the peripheral blood” value (CD34+ cells) was 16×10^3 cells/ml, the “mobilization and apheresis yields of CD34+ stem cells in response to G-CSF” value (CD34+ stem cells) was “able to enhance the mobilization and apheresis yields of CD34+ stem cells” and the “HSC expansion defect in tpo−/− mice” value [1] was “rescued this defect”.
